Where two headings read alike, the source gives them in different places.
Assays:
[1] = molecular target: heteromeric rod CNG channels consisting of CNGA1 and CNGB1 subunits (Bos taurus, UniProt Q00194+Q28181); test: biochemical; type: cell-based; conditions: 2 mM cGMP; for voltage dependence of block: +50 vs −50 mV
Experimental: Currents were elicited by a voltage step protocol from 0 to −50 to +50 mV (See FIG. 1) in the presence of 2 mM cGMP or 2 mM cGMP and compound (5 μM). Time scale is shown in the lower left-hand corner of the panel and FIG. 1, and the zero current level is indicated by the dotted line.
The solid line indicates the fit of the equation for block at a single binding site.
Time scale is shown in the lower left-hand corner of the panel and FIG. 1, and the zero current level is indicated by the dotted line. […] Solid line indicates the fit of the equation for block at a single binding site.
The effectiveness of retinal rod CNG channel current block by the disclosed compounds was tested in Xenopus oocyte preparations. Excised, inside-out patches pulled from oocytes expressed heteromeric rod CNG channels consisting of CNGA1 and CNGB1 subunits. […] CNG channel currents were elicited by a voltage step protocol to −50 and +50 mV (FIG. 1). The apparent KD value at each membrane potential was estimated first by determining I+B and I−B at steady state, where I+B is the current in the presence of blocker and I−B is current in the absence of blocker, for different blocker concentrations ([B]).
Ovaries were surgically removed from adult Xenopus laevis females (Xenopus Express; Brooksville, Fla.) anesthetized with ice-cold 0.1% tricaine and 0.1% NaHCO3 solution. Oocytes were chemically released from ovarian follicles in Ca^2+-free Barth's solution (88 mM NaCl, 1 mM KCl, 2.4 mM NaHCO3, 0.82 mM MgSO4, 7.5 mM Tris, 2.5 mM sodium pyruvate, 100 U/mL penicillin, and 100 μg/mL streptomycin, pH 7.4) containing 0.1 U/mL Liberase Blendzymes (Roche, Indianapolis, Ind.). Stages IV and V oocytes were visually sorted and stored in ND-96 (96 mM NaCl, 2 mM KCl, 1.8 mM CaCl2, 1 mM MgCl2, 5 mM HEPES, 2.5 mM sodium pyruvate, 100 U/mL penicillin, and 100 μg/mL streptomycin, pH 7.4) at 16° C. Oocytes were co-injected the following day with 33 ng of CNGA1 and 67 ng of CNGB1 cRNA […] synthesized from linearized pGEM-HE expression vectors containing the channel subunit cDNA sequence (Strassmaier T & Karpen J, J Med Chem 50, 4186-4194, (2007), incorporated by reference herein) using T7 mMESSAGE mMACHINE® (Ambion, Austin, Tex.). Injected oocytes were incubated at 18° C. the first day and 16° C. for the remaining days.
(§1) Recordings from inside-out excised patches were made 3-7 days after oocyte injection on an Axopatch 1D® amplifier (Axon Instruments, Foster City, Calif.). Briefly, oocyte vitelline membranes were removed in solution containing 200 mM K aspartate, 20 mM KCl, 1 mM MgCl2, 10 mM EGTA, 10 mM HEPES, pH 7.4. Oocytes were placed in a recording chamber in a solution containing 130 mM NaCl, 2 mM HEPES, 0.02 mM EDTA, 1 mM EGTA, pH 7.6, and borosilicate glass electrodes (1-3 MΩ) were filled with identical solution. Macroscopic currents were filtered at 1 kHz and sampled at 2 kHz using pCLAMP 8.0® software (Axon Instruments). Channels were either fully activated with 2 mM or partially activated with 50 and 100 μM cGMP. […] Glass syringes and Teflon tubing were used to minimize the binding of compounds to surfaces; concentrations passing through the perfusion system were verified by absorbance.

[2] = test system: heteromeric rod CNG channels consisting of CNGA1 and CNGB1 subunits; test: CNG channel block at subsaturating cGMP (state dependence of block); type: cell-based; conditions: subsaturating cGMP (50 or 100 μM), +50 mV, normalized to KD at 2 mM cGMP
Excerpt: KD values at saturating cGMP were corrected for ion accumulation. Solid lines indicate simulations for exclusive closed channel blockers, using KD/KDsat=(1−Fsat)/(1−FsatI/Imax), where Fsat is the estimated fraction of open heteromeric rod channels in saturating cGMP assuming Fsat=0.3 (a), 0.56 (b), or 0.78 (c). The dotted line is a simulation for a blocker with no preference for state, or KD/KDsat=1. The dashed line is a simulation for an exclusive open channel blocker, using KD/KDsat=(I/Imax)^−1.
The solid lines in FIG. 4 marked a, b, and c represent the expected relationship between KD and the fraction of closed channels for an exclusive closed channel blocker. Each of a, b, and c uses one estimate for the probability of closed heteromeric retinal rod channels at saturating cGMP. The simulations are described in the following references: Matthews G et al, J Physiol 403, 389-405 (1988); Taylor W R & Baylor D A, J Physiol 483 567-582 (1995); and Bucossi G et al, Biophys J 72, 1165-1181 (1997), all of which are incorporated by reference herein. The dotted line represents a simulation of a blocker with no preference as to conformational of the channel. The dashed line represents a simulation for an exclusive open channel blocker.
as §1, with “absorbance. Current traces were digitally filtered at 300 Hz (Gaussian) and averaged using Clampfit 8.2® software. Currents in the absence of cGMP were subtracted from all currents analyzed. KD values were determined and expressed as the mean±SD.” for “absorbance.”

[3] = +50 mV, concentration series of FIG. 4 / FIG. 5, read-out: KD values determined from the fit of the equation
[4] = Table 1, +50 mV, mean±SD, not corrected for ion accumulation, read-out: KD(+50)
[5] = Table 1, −50 mV, mean±SD, not corrected for ion accumulation, read-out: KD(−50)
[6] = −50 mV, concentration series of FIG. 4 / FIG. 5, read-out: KD values determined from the fit of the equation

Sequence of heteromeric rod CNG channels consisting of CNGA1 and CNGB1 subunits (Bos taurus, UniProt Q00194+Q28181) (Q00194 whole entry): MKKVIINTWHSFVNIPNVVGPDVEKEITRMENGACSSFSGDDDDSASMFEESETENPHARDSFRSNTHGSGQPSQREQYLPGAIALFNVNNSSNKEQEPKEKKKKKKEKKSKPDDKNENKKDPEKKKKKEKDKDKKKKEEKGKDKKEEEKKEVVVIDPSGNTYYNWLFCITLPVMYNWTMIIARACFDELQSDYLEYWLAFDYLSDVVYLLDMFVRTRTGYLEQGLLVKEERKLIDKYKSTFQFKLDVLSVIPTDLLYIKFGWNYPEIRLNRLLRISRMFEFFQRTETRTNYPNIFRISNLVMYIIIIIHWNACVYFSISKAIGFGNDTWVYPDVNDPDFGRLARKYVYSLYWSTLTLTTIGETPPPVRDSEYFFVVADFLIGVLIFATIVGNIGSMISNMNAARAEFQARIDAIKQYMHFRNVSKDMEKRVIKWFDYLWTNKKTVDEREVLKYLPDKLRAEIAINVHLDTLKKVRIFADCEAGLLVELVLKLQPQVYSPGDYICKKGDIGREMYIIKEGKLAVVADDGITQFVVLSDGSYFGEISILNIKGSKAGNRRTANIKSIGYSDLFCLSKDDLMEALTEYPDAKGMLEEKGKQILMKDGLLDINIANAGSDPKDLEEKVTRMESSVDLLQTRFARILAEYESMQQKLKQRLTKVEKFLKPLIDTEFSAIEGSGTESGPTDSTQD
Sequence of heteromeric rod CNG channels consisting of CNGA1 and CNGB1 subunits (Bos taurus, UniProt Q00194+Q28181) (Q28181 whole entry): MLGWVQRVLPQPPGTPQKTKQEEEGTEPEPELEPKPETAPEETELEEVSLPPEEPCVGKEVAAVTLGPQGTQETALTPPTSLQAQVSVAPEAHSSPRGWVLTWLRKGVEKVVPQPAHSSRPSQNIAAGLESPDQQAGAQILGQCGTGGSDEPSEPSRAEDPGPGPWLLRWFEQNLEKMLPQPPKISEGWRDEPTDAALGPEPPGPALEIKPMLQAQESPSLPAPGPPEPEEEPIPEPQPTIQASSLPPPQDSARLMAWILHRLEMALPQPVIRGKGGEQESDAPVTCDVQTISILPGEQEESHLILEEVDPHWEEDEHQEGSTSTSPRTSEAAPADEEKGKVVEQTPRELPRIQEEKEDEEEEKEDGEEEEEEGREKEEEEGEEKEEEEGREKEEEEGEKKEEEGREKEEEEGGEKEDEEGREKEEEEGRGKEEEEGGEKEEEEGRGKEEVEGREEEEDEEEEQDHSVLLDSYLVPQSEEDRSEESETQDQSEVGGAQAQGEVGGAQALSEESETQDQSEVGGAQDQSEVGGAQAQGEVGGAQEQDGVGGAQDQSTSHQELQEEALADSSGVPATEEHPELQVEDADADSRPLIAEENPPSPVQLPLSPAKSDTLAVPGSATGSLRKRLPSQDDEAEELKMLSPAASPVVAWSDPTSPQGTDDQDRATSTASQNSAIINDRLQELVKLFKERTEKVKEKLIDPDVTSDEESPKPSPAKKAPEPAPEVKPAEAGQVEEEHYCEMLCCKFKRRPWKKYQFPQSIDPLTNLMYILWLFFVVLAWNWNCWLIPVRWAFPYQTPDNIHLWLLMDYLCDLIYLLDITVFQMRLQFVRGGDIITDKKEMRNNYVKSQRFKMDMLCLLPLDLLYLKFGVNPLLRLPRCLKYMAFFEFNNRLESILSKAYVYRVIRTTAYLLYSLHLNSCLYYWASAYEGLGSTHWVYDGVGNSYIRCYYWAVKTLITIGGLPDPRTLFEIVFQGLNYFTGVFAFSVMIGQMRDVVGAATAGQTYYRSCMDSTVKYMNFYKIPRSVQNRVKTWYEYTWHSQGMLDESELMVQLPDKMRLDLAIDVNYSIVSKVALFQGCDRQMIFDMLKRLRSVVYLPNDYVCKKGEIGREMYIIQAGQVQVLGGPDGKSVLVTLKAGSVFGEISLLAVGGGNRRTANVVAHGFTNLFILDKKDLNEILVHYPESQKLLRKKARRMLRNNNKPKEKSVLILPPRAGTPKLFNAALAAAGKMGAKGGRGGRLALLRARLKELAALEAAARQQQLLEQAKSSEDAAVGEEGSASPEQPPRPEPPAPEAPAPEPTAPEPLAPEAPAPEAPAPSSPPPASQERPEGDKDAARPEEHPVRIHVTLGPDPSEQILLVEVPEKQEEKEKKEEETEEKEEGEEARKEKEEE

Row | Compound | voltage dependence of block [1] | Kd [1, 3] [nM] | Kd [1, 4] [nM] | Kd [1, 5] [nM] | Kd ([1]; octyl series table, +50 mV, read-out: KD(+50)) [nM] | Kd ([1]; octyl series table, −50 mV, read-out: KD(−50)) [nM] | Kd [1, 6] [nM] | state dependence of block (KD vs fraction of closed channels) [2]
1 | CCCCCCCCNc1ccc(C(=O)OCCN(C)C)cc1 [Compound 5, 2-(Dimethylamino)ethyl 4-(Octylamino)benzoate, reference compound] | appreciably less voltage dependent than compound 1, 6, and 8 | 1500 | 1000 ± 600 | 2400 ± 1400 | 800 ± 500 | 1720 ± 1380 | 1800 | better fit the results expected of a closed channel blocker
2 | CCCCNc1ccc(C(=S)NCCN(C)C)cc1 [Compound 8, 4-(Butylamino)-N-(2-(dimethylamino)ethyl)benzothioamide] |  | 500 | 600 ± 300 | 3900 ± 1800 |  |  | 3700 | better fit the results expected of a closed channel blocker
3 | CCCCCCCCNc1ccc(C(=S)NCCN(C)C)cc1 [Compound 9, 4-(Octylamino)-N-(2-(dimethylamino)ethyl)benzothioamide] | appreciably less voltage dependent than compound 1, 6, and 8 | 1300 | 700 ± 500 |  |  |  | 1800 | better fit the results expected of a closed channel blocker

— US9458102B2 (priority 2011, dated 2016)
